The target in assay [1] is T1, K590A DAT (Homo sapiens, UniProt Q01959, K590A).
T1 construct: expressed in transfected cells; host or cells: HEK293
Nature of the assay: Western blot of mature K590A DAT protein levels. The assay is classed as cell-based. Particulars: overnight treatment. Here is the method: (§1) Cells (1 × 10^6 cells/well) were seeded onto a 6-well plate and incubated for 24 h. Cells were then treated with drugs and incubated for 16 h. After the incubation period, cells were lysed in RIPA buffer supplemented with protease inhibitors (working concentrations: pepstatin A, 5 μg/mL; leupeptin, 10 μg/mL; aprotinin, 1.5 μg/mL; benzamidine, 0.1 μg/mL; PMSF, 0.1 mM) on ice. At 4°C, cell lysates were gently shaken for 15 min followed by centrifugation at 15,000 rpm for 15 min to pellet debris. The Pierce BCA protein assay kit (Thermo Fisher Scientific, Canada) was used to determine the protein concentration of the supernatant. To reach a concentration of 40 μg of protein per 20 μL, samples were diluted in fresh RIPA buffer with 12.5% Laemmli sample buffer and 2.5% β-Mercaptoethanol prior to being heated to 55°C. The protein was then loaded on a 7.5 or 10% SDS-PAGE gel and run at 100 V for approximately an hour or until the dye front reached the bottom of the gel. Next, protein was transferred to a PVDF membrane at 22 V for 16 h or 100 V for 1 h. Blots were blocked with LI-COR blocking buffer for 1 h and incubated for 1 h at room temperature with rabbit anti-GFP (1:1,000 dilution; Life Technologies, cat#A11122). After washing three times with TBST, blots were incubated with goat anti-rabbit IRDye-680RD secondary antibody (1:15,000; LI-COR, cat#926-68071). As a loading control, blots were incubated with mouse anti-GAPDH (1:5,000, Sigma-Aldrich, Canada, cat#G8795) prior to secondary antibody goat anti-mouse IRDye-800GR (1:5,000 dilution, Rockland, Limerick, PA, cat#610-132-007). All antibodies were diluted in LI-COR blocking buffer. Additionally, REVERT total protein staining (LI-COR, Lincoln, NE) was used as a loading control. […] Mature, fully glycosylated DAT (mDAT = 110 kDa) and immature, ER-resident DAT (iDAT = 75 kDa) were visualized using the Odyssey Imaging System (LI-COR, Lincoln, NE) and Image Studio Version 5.2 software (Supplementary Figure 1).
(§2) We next assessed whether drugs that increase DAT surface expression also increase total protein levels of DAT. Cells expressing YFP-HA-DAT were incubated with select test compounds and DAT protein levels were examined by western blot. The effects of the compounds were assessed on WT DAT and K590A DAT. The K590A mutant is a well-characterized ER-retained, trafficking-deficient DAT mutant ([Miranda et al., 2004]) that can be rescued by pharmacological chaperones ([Beerepoot et al., 2016]).
(§3) FIGURE 5 Effect of noribogaine, tetrahydroharmine, PAL-594, bicifadine, and RTI-20 on WT and K590A DAT expression. […] (B) Quantification of WT mDAT protein levels. […] (D) Quantification of K590A mDAT protein levels. […]
A general note: Immunoblotting shows a protein as a band on a membrane.

The target in assay [2] is T2, YFP-HA-βlac-DAT (Homo sapiens, UniProt Q01959). Briefly: β-lactamase (βlac) surface expression assay. In kind it is cell-based. The settings on record: assumed effective EMax. Here is the method:
The βlac surface expression assay was performed by following the method outlined in [Lam et al. (2013)] and [Beerepoot et al. (2015], [2016)]. The assay substrate nitrocefin (BD biosciences) was dissolved in dimethyl sulfoxide (DMSO) at a concentration of 10 mM and frozen at −80°C. Immediately before use, it was thawed and diluted to a final concentration of 100 μM in phosphate buffered saline (PBS). Cells (1 × 10^5/well) were seeded into a poly-D-lysine-coated 48-well plate and incubated for 24 h, prior to drug treatment. Drugs were added to individual wells at varying concentrations and incubated for 16 h. Subsequently, the media was aspirated, and the cells were washed twice with PBS. After removal of the final PBS wash, 200 μL of the nitrocefin solution was added to each well and the absorbance was immediately read. The EPOCH microplate spectrophotometer (BioTek) was used to measure absorbance (486 nm) for each well every minute for 30 min. The rate of reaction (slope of the curve) was used as the readout for the assay ([Beerepoot et al., 2015]). To determine suitable concentration ranges for each drug, they were dissolved in PBS or DMSO at the highest concentration possible. From here, the solutions were serial diluted 1/10 to yield 8 different concentrations. βLAC cells were then treated with the varying drug concentrations and cell viability was recorded using light microscopy. For additional measure, nitrocefin was added and the absorbance was read. For certain cases, Trypan Blue was used to quantitatively differentiate increased cell death from reduced cell division. […] Five or six doses were generally used in subsequent dosing experiments, starting at the highest non-toxic concentration.
Data analysis was performed using GraphPad Prism (GraphPad Software, La Jolla, CA). Linear regression analysis was performed on βLAC time points to determine the slope, thus the rate of reaction, for comparison. Furthermore, the slope was also used to determine the degree of dopamine uptake in the dopamine uptake assays. Non-linear regression, fitting to the log(agonist) vs. response and log(inhibitor) vs. response model curve, was used to determine dose-response relationships of surface expression and uptake assays, respectively. One-way ANOVA with Dunnett’s post hoc-test was used for the β-lactamase assay and one-way ANOVA with Bonferroni correction was used for western blot analysis.
Among these were RTI-1, RTI-2, RTI-5, RTI-6, RTI-11, RTI-20, and PAL-1007. […] The EMax values of all the analyzed drugs are included in Figure 1.
The pharmacological chaperone ability of the 15 ibogaine and tryptamine analogs, shown in Figure 3, were measured using the βlac surface expression assay. HEK cells expressing YFP-HA-βlac-DAT were incubated overnight with these compounds at concentrations varying by log and half-log dilutions, starting at 100 μM final concentration. […] Furthermore, it was important to determine whether the β-carboline analogs could also elicit a chaperone effect because they are not classified as DAT ligands ([Cao et al., 2007]). […] Removing the nitrogen from the ring reduced efficacy as observed with frovatriptan (103 ± 1.4%). […] Evodiamine (54 ± 1.7%) had no chaperone ability and caused a substantial reduction in the surface expression of DAT. Dose-response curves were generated to assess the pharmacological chaperone potencies of select compounds (Figure 4).

Assay [3] deals with T3, WT DAT (YFP-HA-DAT) (Homo sapiens, UniProt Q01959).
T3 construct: expressed in transfected cells; host or cells: HEK293
Briefly: Western blot of mature WT DAT protein levels. The settings on record: overnight 100 μM. The assay is classed as cell-based. Here is the method:
as §1, §2, §3

Assay [4] concerns the target T2, YFP-HA-βlac-DAT. Set-up: method as in Beerepoot et al., 2016. The settings on record: previous experiments; ref Beerepoot et al., 2016; cited from earlier work.
Assay [5] deals with T4, DAT (Homo sapiens, UniProt Q01959).
T4 construct: expressed in transfected cells
The settings on record: read-out: Ki, DAT binding; ref Carroll et al., 2009; cited from earlier work.

Assay [6] deals with T4, DAT. The settings on record: read-out: IC50, dopamine uptake inhibition; ref Carroll et al., 2009; cited from earlier work.
The target in assay [7] is T4, DAT. Nature of the assay: Dopamine uptake inhibition dose response of hit compounds (Figure 6). The assay is classed as cell-based. Particulars: doses 1 nM to 100 μM, normalized to vehicle. Here is the method: Dopamine uptake inhibition was conducted using the Neurotransmitter Transporter Uptake Assay Kit (Molecular Devices, prod#R8173). Cells (1 × 10^5/well) were seeded into 96-well plates and incubated for 24 h. The cells were subjected to overnight drug treatment. The following day, wells were washed and incubated for 30 min with a mixture of 1X Hank’s Balanced Salt Solution (HBSS) and 0.1% Bovine Serum Albumin (BSA) Buffer. Dopamine uptake inhibitors were added during the incubation period. Following the incubation, the fluorescent dye was added, and the plate was immediately transferred to the bottom-read fluorescence microplate reader (Spectramax M3, Molecular Devices) for kinetic read-mode. The assay reads the amount of fluorescent activity which increases as fluorescent dye molecules are transported into the cells by the DAT. The read-out for this assay is the slope which equals the fluorescent measurements/time, ultimately denoting the uptake rate.
Data analysis was performed using GraphPad Prism (GraphPad Software, La Jolla, CA). Linear regression analysis was performed on βLAC time points to determine the slope, thus the rate of reaction, for comparison. Furthermore, the slope was also used to determine the degree of dopamine uptake in the dopamine uptake assays. […]

Where [8] appears, read: HEK293, read-out: EMax (%), WT DAT surface expression, HEK cells expressing YFP-HA-βlac-DAT, overnight (16 h) incubation, up to 100 μM, normalized to vehicle.
[9] abbreviates: HEK293, HEK cells expressing YFP-HA-βlac-DAT, overnight (16 h) incubation, up to 100 μM, normalized to vehicle, read-out: EMax (%), WT DAT surface expression.

Counter-ions that a name gives are not always drawn. Like-named read-outs stand apart in the source and are kept apart here. Bounds are passed on as bounds.

What is called Emax is the maximal effect, on the per cent scale that the assay sets. One may read the Ki as a dissociation constant, usually derived from enzyme kinetics or from competition with a known ligand. As a reminder, the IC50 is the midpoint of a concentration-inhibition curve.

T4 sequence (Q01959 whole entry): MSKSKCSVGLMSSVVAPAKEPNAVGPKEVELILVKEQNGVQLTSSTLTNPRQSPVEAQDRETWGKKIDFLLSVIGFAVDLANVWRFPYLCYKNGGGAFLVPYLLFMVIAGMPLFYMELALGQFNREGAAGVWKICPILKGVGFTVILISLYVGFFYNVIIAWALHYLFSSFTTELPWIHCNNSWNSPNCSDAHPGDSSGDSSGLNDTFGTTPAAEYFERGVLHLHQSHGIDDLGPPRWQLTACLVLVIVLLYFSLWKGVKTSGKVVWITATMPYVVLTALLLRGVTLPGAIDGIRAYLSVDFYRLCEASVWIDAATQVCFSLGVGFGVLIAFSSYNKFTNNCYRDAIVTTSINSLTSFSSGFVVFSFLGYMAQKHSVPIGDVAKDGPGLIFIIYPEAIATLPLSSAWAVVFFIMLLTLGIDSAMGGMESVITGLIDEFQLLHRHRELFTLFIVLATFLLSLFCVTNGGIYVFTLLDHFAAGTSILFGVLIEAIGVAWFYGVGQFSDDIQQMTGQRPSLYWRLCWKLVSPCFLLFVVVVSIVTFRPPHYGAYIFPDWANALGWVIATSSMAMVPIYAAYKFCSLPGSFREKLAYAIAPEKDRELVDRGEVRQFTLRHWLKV
T3 sequence (Q01959 whole entry): as above
T1 sequence (Q01959 whole entry K590A): as the sequence (Q01959 whole entry) above, with K590A counted along it
T2 sequence (Q01959 1-171 limits assumed): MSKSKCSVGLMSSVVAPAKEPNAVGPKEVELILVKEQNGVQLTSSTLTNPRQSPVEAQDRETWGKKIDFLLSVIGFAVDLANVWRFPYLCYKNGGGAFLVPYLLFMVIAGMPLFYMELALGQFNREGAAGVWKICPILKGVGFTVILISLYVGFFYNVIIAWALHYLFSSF
T2 sequence (Q01959 237-620 limits assumed): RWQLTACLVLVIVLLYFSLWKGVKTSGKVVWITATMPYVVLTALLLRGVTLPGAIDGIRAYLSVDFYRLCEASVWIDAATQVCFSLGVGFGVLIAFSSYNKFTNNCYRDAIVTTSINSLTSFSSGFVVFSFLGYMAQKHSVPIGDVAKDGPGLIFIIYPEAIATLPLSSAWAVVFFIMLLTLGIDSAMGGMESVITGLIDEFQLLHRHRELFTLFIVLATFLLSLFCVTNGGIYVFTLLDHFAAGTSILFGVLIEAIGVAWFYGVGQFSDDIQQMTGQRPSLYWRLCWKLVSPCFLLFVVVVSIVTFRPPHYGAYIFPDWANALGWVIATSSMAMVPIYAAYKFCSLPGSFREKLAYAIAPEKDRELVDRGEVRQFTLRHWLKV

In the case of `Cc1ccc(C23CNCC2C3)cc1` (stereo not shown) [Bicifadine, bicifadine], the “K590A DAT (mDAT) protein levels” value in assay [1] is recorded as “statistically significant effect”. In addition, in assay [2] (setting [8]), the maximum response (Emax) is 149 ± 15%. In assay [3], the “mature WT DAT (mDAT) protein levels” value is reported as “significantly increase”.
In the case of `CC(NC(C)(C)C)C(=O)c1cccc(Cl)c1` (stereo not shown) [Bupropion, Bupropion hydrochloride, reference compound], in assay [2] (setting [8]), the Emax was found to be 144 ± 7.7%. In addition, in assay [4], the “previously reported increase of WT DAT surface expression (EMax)” value is 137%.
Turning to `CC1NCCOC1c1cccc(Cl)c1` (stereo not shown) [PAL-594], the “K590A DAT (mDAT) protein levels” value in assay [1] is recorded as “statistically significant effect”. Also, the maximal response (Emax) in assay [2] (setting [9]) was found to be 166 ± 8.7%. Moreover, the “mature WT DAT (mDAT) protein levels” value in assay [3] was “significantly increase”.
Take `Cc1ccc(C(=O)C(C)NC(C)(C)C)cc1` (stereo not shown) [RTI-5]: the maximum response (Emax) in assay [2] (setting [9]) was found to be 140 ± 5.5%. In assay [5], the inhibition constant (Ki) was greater than 10 µM. Further, in assay [6], the IC50 was 6.84 µM.
Take `CCCC(NC(C)(C)C)C(=O)c1cccc(Cl)c1` (stereo not shown) [RTI-12]: the Emax in assay [2] (setting [9]) amounted to 113 ± 6.3%. Moreover, the “maximal dopamine uptake inhibition” value in assay [7] is on record as 96%.
For `Cc1ccc(C(=O)C(C)NC(C)(C)C)cc1Cl` (stereo not shown) [RTI-20], the Emax in assay [2] (setting [9]) stood at 147 ± 8%. The “mature WT DAT (mDAT) protein levels” value in assay [3] is recorded as “significantly increase”.
As to `COc1ccc2c3c([nH]c2c1)C(C)NCC3` (stereo not shown) [Tetrahydroharmine, tetrahydroharmine], the “K590A DAT (mDAT) protein levels” value in assay [1] is listed as “statistically significant effect”. Besides, in assay [2] (setting [8]), the Emax stood at 137 ± 6.8%.
On to ibogaine [reference compound], for which the “EMax (%), WT DAT surface expression” value in assay [2] (HEK cells expressing YFP-HA-βlac-DAT, overnight (16 h) incubation, up to 100 μM, normalized to vehicle) was 222 ± 7.9%. Also, in assay [4], the “previously reported increase of WT DAT surface expression (EMax)” value is on record as 187%.

Source of the values: publication PMC9124866, “Structure-Activity Relationships of Dopamine Transporter Pharmacological Chaperones” (Frontiers in Cellular Neuroscience, 2022).
